In patent US20080214807A1, “Substituted Spiro Compounds and their Use for Producing Drugs” (Gruenenthal GmbH, priority 2005, published 2008):

Assays:
[1] = biological target: T1, VR1 (human) (Homo sapiens, UniProt Q8NER1); test: Functional testing on vanilloid receptor VR1, FLIPR Ca2+ inflow assay (CHO K1 cells stably transfected with the VR1 gene); format: cell-based; settings: test compound 10 μM; for inhibition at 10 µM / activation at 10 µM: CHO-K1; for inhibition at 10 µM: read-out: VR1 (human) (% inhibition compared to 10 μM CP); for activation at 10 µM: read-out: VR1 (human) (% stimulation compared to 10 μM CP)
T1 construct: expressed in transfected cells; host or cells: CHO K1 cells (ECACC)
Excerpt: II. Functional Testing Carried out on the Vanilloid Receptor (VR1)
The agonistic or antagonistic effect of the substances to be tested can also be determined on the vanilloid receptor (VR1) using the following assay. According to this assay, the Ca^2+ inflow is quantified through the channel using a Ca^2+-sensitive dye (type Fluo-4, Molecular Probes Europe BV, Leiden, Netherlands) in a fluorescent imaging plate reader (FLIPR, Molecular Devices, Sunnyvale, USA).
Chinese hamster ovary cells (CHO K1 cells, European Collection of Cell Cultures (ECACC) United Kingdom) were stably transfected with the VR1 gene. For functional testing, these cells were plated out on poly-D-lysine-coated black 96 well plates having a clear base (BD Biosciences, Heidelberg, Germany) at a density of 25,000 cells/well. The cells were incubated overnight at 37° C. and 5% CO2 in a culture medium (Ham's F12 nutrient mixture, 10-% by volume of FCS (foetal calf serum), 18 μg/ml L-proline). The next day the cells were incubated with Fluo-4 (Fluo-4 2 μM, 0.01% by volume of Pluronic F127, Molecular Probes in HBSS (Hank's buffered saline solution), Gibco Invitrogen GmbH, Karlsruhe, Germany) for 30 minutes at 37° C. Subsequently, the plates were washed 3 times with HBSS buffer and after further incubation for 15 minutes at room temperature used for Ca^2+ measurement in a FLI PR assay. The Ca^2+-dependent fluorescence was measured before and after the addition of the substances to be tested (λex wavelength=488 nm, λem=540 nm). Quantification was carried out by measuring the highest fluorescence intensity (FC, Fluorescence Counts) over time.
The FLIPR protocol consists of 2 substance additions. First the compounds to be tested (10 μM) were pipetted onto the cells and the Ca^2+ inflow was compared with the control (capsaicin 10 μM) (% activation based on the Ca^2+ signal after the addition of 10 μM capsaicin). After 5 minutes' incubation, 100 nM of capsaicin were administered and the Ca^2+ inflow was also determined.
Desensitising agonists and antagonists led to suppression of the Ca^2+ inflow. The % inhibition was calculated compared to the maximum achievable inhibition with 10 μM of capsaicin.

[2] = biological target: T2, rat-species vanilloid receptor 1 (VR1/TRPV1) (Rattus norvegicus, UniProt O35433); test: Functional testing on vanilloid receptor 1 (VR1/TRPV1), FLIPR Ca2+ inflow assay in rat dorsal root ganglia cells; format: cell-based; settings: test compound 10 μM; for inhibition at 10 µM: read-out: VR1 (rat) (% inhibition compared to 10 μM CP); for activation at 10 µM: read-out: VR1 (rat) (% stimulation compared to 10 μM CP)
T2 construct: endogenous in cells; host or cells: primary cultured rat dorsal root ganglion cells
Excerpt: I. Functional Testing Carried out on the Vanilloid Receptor 1 (VRI/TRPV1 Receptor)
The agonistic or antagonistic effect of the substances to be tested can be determined on the rat-species vanilloid receptor 1 (VR1/TRPV1) using the following assay. According to this assay, the Ca^2+ inflow is quantified through the receptor channel using a Ca^2+-sensitive dye (type Fluo-4, Molecular Probes Europe BV, Leiden, Netherlands) in a fluorescent imaging plate reader (FLIPR, Molecular Devices, Sunnyvale, USA).
Complete medium: 50 mL HAMS F12 nutrient mixture (Gibco Invitrogen GmbH, Karlsruhe, Germany) with
10% by volume of FCS (foetal calf serum, Gibco Invitrogen GmbH, Karlsruhe, Germany, […]);
2 mM L-glutamine (Sigma, Munich, Germany);
1% by weight of AA solution (antibiotic/antimyotic solution, PAA, Pasching, Austria) and 25 ng/ml NGF medium (2.5 S, Gibco Invitrogen GmbH, Karlsruhe, Germany)
Cell culture plate: Poly-D-lysine-coated, black 96 well plates having a clear base (96 well black/clear plate, BD Biosciences, Heidelberg, Germany) were additionally coated with laminin (Gibco Invitrogen GmbH, Karlsruhe, Germany), the laminin being diluted with PBS (Ca—Mg-free PBS, Gibco Invitrogen GmbH, Karlsruhe, Germany) to a concentration of 100 μg/mL. Aliquots having a laminin concentration of 100 μg/mL were removed and stored at −20° C. The aliquots were diluted with PBS in a ratio of 1:10 to 10 μg/mL laminin and in each case 50 μL of the solution were pipetted into a recess in the cell culture plate. The cell culture plates were incubated for at least two hours at 37° C., the excess solution was removed by suction-filtration and the recesses were each washed twice with PBS. The coated cell culture plates were stored with excess PBS which was not removed until just before the feeding of the cells.
Preparation of the Cells:
The vertebral column was removed from decapitated rats and placed immediately into cold HBSS buffer (Hank's buffered saline solution, Gibco Invitrogen GmbH, Karlsruhe, Germany), i.e. buffer located in an ice bath, mixed with 1% by volume (percent by volume) of an AA solution (antibiotic/antimyotic solution, PAA, Pasching, Austria). The vertebral column was cut longitudinally and removed together with fasciae from the vertebral canal. Subsequently, the dorsal root ganglia (DRG) were removed and again stored in cold HBSS buffer mixed with 1% by volume of an AA solution. The DRG, from which all blood remnants and spinal nerves had been removed, were transferred in each case to 500 μL of cold type 2 collagenase (PAA, Pasching, Austria) and incubated for 35 minutes at 37° C. After the addition of 2.5% by volume of trypsin (PAA, Pasching, Austria), incubation was continued for 10 minutes at 37° C. After complete incubation, the enzyme solution was carefully pipetted off and 500 μL of complete medium were added to each of the remaining DRG. The DRG were in each case suspended several times, drawn through cannulae No. 1, No. 12 and No. 16 using a syringe and transferred to a 50 mL Falcon tube which was filled up to 15 mL with complete medium. The contents of each Falcon tube was in each case filtered through a 70 μm Falcon filter element and centrifuged for 10 minutes at 1,200 rpm and room temperature. The resulting pellet was in each case taken up in 250 μL of complete medium and the number of cells determined.
The number of cells in the suspension was set to 3×10^5 per mL and 150 μL of this suspension were in each case introduced into a recess in the cell culture plates coated as described hereinbefore. In the incubator the plates were left for two to three days at 37° C., 5% by volume of CO2 and 95% relative humidity. […]

[3] = 5 min incubation, then 100 nM capsaicin, relative to maximum achievable inhibition with 10 μM capsaicin
[4] = Ca2+ inflow relative to signal of 10 μM capsaicin (CP)

T1 sequence (Q8NER1 whole entry): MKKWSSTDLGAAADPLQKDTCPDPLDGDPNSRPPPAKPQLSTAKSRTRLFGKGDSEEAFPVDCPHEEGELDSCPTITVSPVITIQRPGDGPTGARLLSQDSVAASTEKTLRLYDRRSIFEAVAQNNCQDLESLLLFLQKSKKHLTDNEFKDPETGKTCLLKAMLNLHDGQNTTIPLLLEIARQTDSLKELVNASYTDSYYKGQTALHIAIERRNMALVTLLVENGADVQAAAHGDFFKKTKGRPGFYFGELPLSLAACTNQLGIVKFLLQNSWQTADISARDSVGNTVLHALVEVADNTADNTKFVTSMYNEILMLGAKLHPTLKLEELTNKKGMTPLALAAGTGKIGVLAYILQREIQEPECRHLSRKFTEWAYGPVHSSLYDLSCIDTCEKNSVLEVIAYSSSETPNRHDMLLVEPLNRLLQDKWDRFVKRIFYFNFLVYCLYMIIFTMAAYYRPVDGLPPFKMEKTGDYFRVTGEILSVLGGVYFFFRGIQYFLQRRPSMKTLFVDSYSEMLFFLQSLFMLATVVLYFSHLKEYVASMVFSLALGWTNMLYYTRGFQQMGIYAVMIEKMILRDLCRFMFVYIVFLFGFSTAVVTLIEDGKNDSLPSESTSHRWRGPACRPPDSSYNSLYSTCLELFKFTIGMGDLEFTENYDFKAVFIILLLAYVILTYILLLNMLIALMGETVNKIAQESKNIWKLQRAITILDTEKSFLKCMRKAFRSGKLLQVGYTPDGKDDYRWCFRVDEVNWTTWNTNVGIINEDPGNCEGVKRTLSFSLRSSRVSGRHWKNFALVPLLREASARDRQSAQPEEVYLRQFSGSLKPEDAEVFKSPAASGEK
T2 sequence (O35433 whole entry): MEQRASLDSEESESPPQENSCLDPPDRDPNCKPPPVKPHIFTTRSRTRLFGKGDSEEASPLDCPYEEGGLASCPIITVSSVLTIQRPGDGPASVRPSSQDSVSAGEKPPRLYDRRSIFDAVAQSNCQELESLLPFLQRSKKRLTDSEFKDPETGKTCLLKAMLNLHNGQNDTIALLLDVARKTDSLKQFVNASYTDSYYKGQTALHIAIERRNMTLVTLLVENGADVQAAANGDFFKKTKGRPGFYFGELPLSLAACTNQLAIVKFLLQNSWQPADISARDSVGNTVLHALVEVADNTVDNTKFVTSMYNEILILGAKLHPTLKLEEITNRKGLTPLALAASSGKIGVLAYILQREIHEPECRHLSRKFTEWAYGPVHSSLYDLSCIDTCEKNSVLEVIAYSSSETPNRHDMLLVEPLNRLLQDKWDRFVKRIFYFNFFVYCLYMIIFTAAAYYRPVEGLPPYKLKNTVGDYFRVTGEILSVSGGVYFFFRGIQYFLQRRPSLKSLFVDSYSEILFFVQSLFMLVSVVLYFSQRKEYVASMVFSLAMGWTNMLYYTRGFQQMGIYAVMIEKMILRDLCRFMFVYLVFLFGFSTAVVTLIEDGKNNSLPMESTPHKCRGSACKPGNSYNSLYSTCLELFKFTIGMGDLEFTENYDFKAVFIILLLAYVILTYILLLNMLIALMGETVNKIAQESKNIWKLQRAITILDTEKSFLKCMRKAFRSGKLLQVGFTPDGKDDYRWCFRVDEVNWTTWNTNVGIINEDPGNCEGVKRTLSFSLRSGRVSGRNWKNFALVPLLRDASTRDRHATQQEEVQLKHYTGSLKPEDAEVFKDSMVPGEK

VR1 (human) (% inhibition compared to 10 μM CP) [1, 3]	VR1 (human) (% stimulation compared to 10 μM CP) [1, 4]	VR1 (rat) (% inhibition compared to 10 μM CP) [2, 3]	VR1 (rat) (% stimulation compared to 10 μM CP) [2, 4]	inhibition at 10 µM [1, 3]	activation at 10 µM [1, 4]	inhibition at 10 µM [2, 3]	activation at 10 µM [2, 4]	Compound
11.17%	0.67%	34.24%	4.68%	–	–	–	–	COc1cccc(NC(=O)N2CCC3(CC2)CC(C(=O)Nc2ccc(Cl)cn2)=NO3)c1 [Example 18, 1-oxa-2,8-diazaspiro[4.5]dec-2-ene-3,8-dicarboxylic acid-3-[(5-chloropyridin-2-yl)amide]-8-[(3-methoxyphenyl)amide]]
–	–	–	–	53.7%	19.5%	46.9%	19.8%	COc1cccc(NC(=O)N2CCC3(CC2)CC(C(=O)N2CCN(c4ncccc4Cl)CC2)=NO3)c1 [Example 17, 3-[4-(3-chloropyridin-2-yl)piperazine-1-carbonyl]-1-oxa-2,8-diazaspiro[4.5]dec-2-ene-8-carboxylic acid-(3-methoxyphenyl)amide]
–	–	–	–	63.4%	13.2%	98.8%	18.6%	O=C(Nc1ccc(Cl)cc1)N1CCC2(CC1)CC(C(=O)N1CCN(c3ncccc3Cl)CC1)=NO2 [Example 51, 3-[4-(3-chloropyridin-2-yl)piperazine-1-carbonyl]-1-oxa-2,8-diazaspiro[4.5]dec-2-ene-8-carboxylic acid-(4-chlorophenyl)amide]
–	–	–	–	8.37%	-0.66%	43.3%	2.79%	O=C(Nc1cc(C(F)(F)F)ccc1Cl)N1CCC2(CC1)CC(C(=O)N1CCN(c3ncccc3Cl)CC1)=NO2 [Example 22, 3-[4-(3-chloropyridin-2-yl)piperazine-1-carbonyl]-1-oxa-2,8-diazaspiro[4.5]dec-2-ene-8-carboxylic acid-(2-chloro-5-trifluoromethylphenyl)amide]
–	–	–	–	27.6%	0.08%	45.9%	0.63%	O=C(Nc1ccc(Cl)c(C(F)(F)F)c1)N1CCC2(CC1)CC(C(=O)N1CCN(c3ncccc3Cl)CC1)=NO2 [Example 28, 3-[4-(3-chloropyridin-2-yl)piperazine-1-carbonyl]-1-oxa-2,8-diazaspiro[4.5]dec-2-ene-8-carboxylic acid-(4-chloro-3-trifluoromethylphenyl)amide]
–	–	–	–	41.9%	5.26%	63.3%	30.2%	CSc1cccc(NC(=O)N2CCC3(CC2)CC(C(=O)N2CCN(c4ncccc4Cl)CC2)=NO3)c1 [Example 56, 3-[4-(3-chloropyridin-2-yl)piperazine-1-carbonyl]-1-oxa-2,8-diazaspiro[4.5]dec-2-ene-8-carboxylic acid-(3-methylsulphanylphenyl)amide]
–	–	–	–	37%	10%	94%	45%	O=C(Nc1ccc(S(F)(F)(F)(F)F)cc1)N1CCC2(CC1)CC(C(=O)N1CCN(c3ncccc3Cl)CC1)=NO2 [Example 229, 3-[4-(3-chloropyridin-2-yl)piperazine-1-carbonyl]-1-oxa-2,8-diazaspiro[4.5]dec-2-ene-8-carboxylic acid-(4-pentafluorosulphanylphenyl)amide]
–	–	–	–	45.1%	47.5%	55.8%	38.5%	COc1ccc(NC(=O)N2CCC3(CC2)CC(C(=O)N2CCN(c4ncccc4Cl)CC2)=NO3)cc1 [Example 52, 3-[4-(3-chloropyridin-2-yl)piperazine-1-carbonyl]-1-oxa-2,8-diazaspiro[4.5]dec-2-ene-8-carboxylic acid-(4-methoxyphenyl)amide]
–	–	–	–	51.9%	-0.13%	86.2%	6.21%	O=C(Nc1ccc(OC(F)(F)F)cc1)N1CCC2(CC1)CC(C(=O)N1CCN(c3ncccc3Cl)CC1)=NO2 [Example 34, 3-[4-(3-chloropyridin-2-yl)piperazine-1-carbonyl]-1-oxa-2,8-diazaspiro[4.5]dec-2-ene-8-carboxylic acid-(4-trifluoromethoxyphenyl)amide]
